Source: US20240174680A1, “CDK2 INHIBITORS AND METHODS OF USING THE SAME” (Cedilla Therapeutics, Inc., priority 2021, published 2024)

target: CDK2/Cyclin E1 (Homo sapiens, UniProt P24941); assay: CDK2/Cyclin E1 Caliper LabChip EZ Reader mobility shift assay; assay type: biochemical; design: purchased Eurofins 14-475; details: read-out: Caliper Assay (CDK2/CCNE1): IC50
Protocol: Inhibition of CDK2/Cyclin E1 activity in the presence of compounds of the present disclosure was evaluated using a Caliper LabChip® EZ Reader mobility shift assay. In the assay, CDK2/Cyclin E1 (Eurofins, 14-475) catalyzed the phosphorylation of a fluorescently tagged peptide 5-FAM-QSPKKG-CONH2 (PerkinElmer, FL Peptide 18) which induced a difference in capillary electrophoresis mobility. The peptide substrate and product were measured, and the conversion ratio was used to determine the inhibition (as % activity and IC50 values) of CDK2/Cyclin E1. Reactions contained 50 mM HEPES pH 7.5, 10 mM MgCl2, 1 mM EDTA, 2 mM DTT, 0.01% Brij35, 0.5 mg/mL BSA, 0.1% DMSO, 2.5 nM CDK2/Cyclin E1, 100 μM ATP, and 1.5 μM fluorescent peptide substrate.
Dose titrations of inhibitors in 100% DMSO were combined with 3.25 nM CDK2/Cyclin E1 and 130 μM of ATP in reaction buffer. The mixtures were incubated for 30 minutes before the addition of fluorescent peptide substrate to initiate the kinase reaction. The final conditions were 2.5 nM CDK2/Cyclin E1, 100 μM ATP, and 1.5 μM fluorescent peptide. The reactions were stopped after 100 minutes with the addition of EDTA (400 mM final EDTA concentration). The stopped reactions were analyzed on a Caliper LabChip® EZ Reader II. The conversion ratios were normalized to yield % activity, plotted against compound concentration, and fit to a four-parameter equation to determine the IC50 for each compound.

SMILES | IC50
CNC(=O)[C@@H](NC(=O)C1(F)CN(C(=O)c2cnn(Cc3ccccc3)c2)CC12CN(C(=O)[C@H]1CC1(C)C)C2)[C@@H](C)OCc1ccccc1 (stereo partly drawn) [I-500] | 100 to 1000 nM
C[C@H](NC(=O)[C@H]1CN(C(=O)c2cnn(Cc3ccccc3)c2)CC12CN(C(=O)[C@H]1CC1(C)C)C2)c1cccc(F)c1 [I-127B] | > 10000 nM
CNC(=O)[C@@H](NC(=O)[C@]1(C)CN(C(=O)c2cnn(Cc3ccccc3)c2)CC12CN(C(=O)[C@H]1CC1(C)C)C2)[C@@H](C)OCC1CCCCC1 [I-499A] | 1000 to 10000 nM
CNC(=O)[C@@H](NC(=O)[C@H]1CN(C(=O)c2cnn(Cc3ccccc3)c2)CC12CN(C(=O)CC1CCC1)C2)[C@@H](C)OCc1ccccc1 [I-27B] | > 10000 nM
CNC(=O)[C@@H](NC(=O)[C@H]1CN(C(=O)c2cnn(Cc3ccccc3)c2)CC12CN(C(=O)[C@H]1CC1(C)C)C2)[C@H](C)OCC1CCCCC1 [I-165] | > 10000 nM
CC1(C)C[C@@H]1C(=O)N1CC2(CN(C(=O)c3cnn(Cc4ccccc4)c3)C[C@H]2C(=O)N[C@H]2CCN(c3ccccc3)C2)C1 [I-206] | 100 to 1000 nM
CNC(=O)[C@@H](NC(=O)[C@H]1CN(C(=O)c2cnn(Cc3ccccc3)c2)CC12CN(C(=O)C1(CCF)CC1)C2)[C@@H](C)OCc1ccccc1 [I-117B] | > 10000 nM
CNC(=O)[C@@H](NC(=O)[C@@H]1CN(C(=O)c2scnc2C2CC2)CC12CN(C(=O)[C@H]1CC1(C)C)C2)[C@@H](C)OCC1CCCCC1 [I-185A] | > 10000 nM
CC1(C)C[C@@H]1C(=O)N1CC2(CN(C(=O)c3cncs3)C[C@H]2C(=O)NC(c2cccc(C3CCCCC3)n2)C2CCCO2)C1 (stereo partly drawn) [I-495] | 10 to 100 nM
CNC(=O)[C@@H](NC(=O)[C@@H]1CN(C(=O)c2cnn(Cc3ccccc3)c2)CC12CN(C(=O)CC1(COC)CC1)C2)[C@@H](C)OCc1ccccc1 [I-82A] | > 10000 nM
Cc1cc(C(=O)N2CC(C(=O)N[C@H](C(=O)N3CCCCC3)[C@@H](C)OCC3CCCCC3)C3(C2)CN(C(=O)[C@H]2CC2(C)C)C3)[nH]n1 (stereo partly drawn) [I-264] | 1000 to 10000 nM
C[C@@H](OCC1CCC(F)(F)CC1)[C@H](NC(=O)[C@@H]1CN(C(=O)c2cncs2)CC12CN(C(=O)[C@H]1CC1(C)C)C2)C(=O)N1CCC(C(F)(F)F)CC1 [I-398] | ≤ 10 nM
CNC(=O)[C@@H](NC(=O)[C@H]1CN(C(=O)c2cnn(Cc3ccccc3)c2)CC12CN(C(=O)[C@H]1CC1(C)C)C2)[C@@H](C)OCC(C)C [I-137B] | 1000 to 10000 nM
C[C@@H]1C[C@H](C)CN(C(=O)[C@@H](NC(=O)C2CN(C(=O)c3cnn(Cc4ccccc4)c3)CC23CN(C(=O)[C@H]2CC2(C)C)C3)[C@@H](C)OCC2CCCCC2)C1 (stereo partly drawn) [I-104] | 10 to 100 nM
C[C@@H](OCC1CCCCC1)[C@H](NC(=O)[C@@H]1CN(C(=O)c2cnn(Cc3ccccc3)c2)CC12CN(C(=O)[C@H]1CC1(C)C)C2)C(=O)N1CC(CN)C1 [I-239] | ≤ 10 nM
COC[C@H]1CCCN(C(=O)[C@@H](NC(=O)[C@H]2CN(C(=O)c3cncs3)CC23CN(C(=O)[C@H]2CC2(C)C)C3)[C@@H](C)OCC2CCCCC2)C1 [I-196B] | ≤ 10 nM
CNC(=O)[C@@H](NC(=O)[C@@H]1CN(C(=O)c2scnc2C2CCCC2)CC12CN(C(=O)[C@H]1CC1(C)C)C2)[C@@H](C)OCC1CCCCC1 [I-224B] | > 10000 nM
CNC(=O)[C@@H](NC(=O)[C@H]1CN(Cc2ccccn2)CC12CN(C(=O)[C@H]1CC1(C)C)C2)[C@@H](C)OCc1ccccc1 [I-40B] | > 10000 nM
C[C@@H](OCC1CCCCC1)[C@H](NC(=O)[C@H]1CN(C(=O)c2cn[nH]c2)CC12CN(C(=O)[C@H]1CC1(C)C)C2)C(=O)N1CCCCC1 [I-151B] | 1000 to 10000 nM
C[C@@H](OCC12CCC(CC1)OC2)[C@H](NC(=O)[C@@H]1CN(C(=O)c2cncs2)CC12CN(C(=O)[C@H]1CC1(C)C)C2)C(=O)N1CCC(C)(C)CC1 [I-452] | ≤ 10 nM

SMILES | IC50
COCC1(NC(=O)[C@H]2CN(C(=O)c3cnn(Cc4ccccc4)c3)CC23CN(C(=O)[C@H]2CC2(C)C)C3)CC1 [I-250] | > 10000 nM
CNC(=O)[C@@H](NC(=O)[C@H]1CN(C(=O)c2cnc(C(C)(C)C)s2)CC12CN(C(=O)[C@H]1CC1(C)C)C2)[C@@H](C)OCC1CCCCC1 [I-229B] | > 10000 nM
C[C@@H](OCc1ccccc1)[C@H](NC(=O)C1CN(C(=O)c2cnn(Cc3ccccc3)c2)CC12CN(C(=O)[C@H]1CC1(C)C)C2)C(=O)NCC#CCO (stereo partly drawn) [I-20] | 10 to 100 nM
CNC(=O)[C@@H](NC(=O)[C@H]1CN(C(=O)c2cnn(CC3CCNCC3)c2)CC12CN(C(=O)[C@H]1CC1(C)C)C2)[C@@H](C)OCc1ccccc1 [I-19B] | > 10000 nM
CNC(=O)[C@@H](NC(=O)[C@H]1CN(C(=O)c2scnc2C2CC2)CC12CN(C(=O)[C@H]1CC1(C)C)C2)[C@@H](C)OCC1CCCCC1 [I-185B] | > 10000 nM
Cc1ccc(CNC(=O)[C@@H]2CN(C(=O)c3cnn(Cc4ccccc4)c3)CC23CN(C(=O)C(C)(C)C2CC2)C3)nn1 [I-387, (S)-6-(1-benzyl-1H-pyrazole-4-carbonyl)-2-(2-cyclopropyl-2-methylpropanoyl)-N-((6-methylpyridazin-3-yl)methyl)-2,6-diazaspiro[3.4]octane-8-carboxamide] | > 10000 nM
CNC(=O)[C@@H](NC(=O)[C@@H]1CN(C(=O)c2sc(C(C)C)nc2C)CC12CN(C(=O)[C@H]1CC1(C)C)C2)[C@@H](C)OCC1CCCCC1 [I-227A] | 100 to 1000 nM
CC(C)(O)C(NC(=O)[C@@H]1CN(C(=O)c2cnco2)CC12CN(C(=O)[C@H]1CC1(C)C)C2)c1cccc(C2CCOCC2)n1 (stereo partly drawn) [I-436] | > 10000 nM
CO[C@H]1COCC[C@H]1NC(=O)[C@H]1CN(C(=O)c2cnn(Cc3ccccc3)c2)CC12CN(C(=O)[C@H]1CC1(C)C)C2 [I-134B] | > 10000 nM
CC1(C)C[C@@H]1C(=O)N1CC2(CN(C(=O)c3cnn(Cc4ccccc4)c3)C[C@H]2C(=O)N[C@@H]2CCCN(CC3CCCCC3)C2)C1 [I-212] | 1000 to 10000 nM
C[C@@H](OCc1ccccc1)[C@H](NC(=O)[C@@H]1CN(C(=O)c2cnn(Cc3ccccc3)c2)CC12CN(C(=O)[C@H]1CC1(C)C)C2)C(=O)N(C)C [I-409] | ≤ 10 nM
CNC(=O)[C@@H](NC(=O)[C@@H]1CN(C(=O)c2cnn(Cc3ccccc3)c2)CC12CN(C(=O)C(C)(C)C)C2)[C@@H](C)OCc1ccccc1 [I-65A] | 10 to 100 nM
CNC(=O)[C@@H](NC(=O)[C@H]1CN(C(=O)c2cnn(Cc3ccccc3)c2)CC12CN(C(=O)CC(F)(F)F)C2)[C@@H](C)OCc1ccccc1 [I-87B] | > 10000 nM
C[C@@H](O)[C@H](NC(=O)[C@@H]1CN(C(=O)c2cnn(C)c2)CC12CN(C(=O)[C@H]1CC1(C)C)C2)C(=O)N1CCCCC1 [I-305] | > 10000 nM
CNC(=O)[C@@H](NC(=O)[C@@H]1CN(C(=O)c2cnn(Cc3ccccc3)c2)CC12CN(C(=O)C1(C#N)CC1)C2)[C@@H](C)OCc1ccccc1 [I-73A] | 1000 to 10000 nM
C[C@@H](OCC1CCC(F)(F)CC1)[C@H](NC(=O)[C@@H]1CN(C(=O)c2cncs2)CC12CN(C(=O)[C@H]1CC1(C)C)C2)C(=O)N1CCC(O)CC1 [I-383] | ≤ 10 nM
COC1CCN(C(=O)[C@@H](NC(=O)[C@@H]2CN(C(=O)c3cncs3)CC23CN(C(=O)[C@H]2CC2(C)C)C3)[C@@H](C)OCC2CCC(F)(F)CC2)CC1 [I-385] | ≤ 10 nM
CNC(=O)[C@H](CS(=O)(=O)Cc1ccccc1)NC(=O)[C@@H]1CN(C(=O)c2cnn(Cc3ccccc3)c2)CC12CN(C(=O)[C@H]1CC1(C)C)C2 [I-226] | 1000 to 10000 nM
CNC(=O)[C@@H](NC(=O)[C@@H]1CN(C(=O)c2cnn(Cc3ccccc3)c2)CC12CN(C(=O)CC1CCC1)C2)[C@@H](C)OCc1ccccc1 [I-27A] | 1000 to 10000 nM
